Experimental data reported in patent publication US5612363A, “N,N-di(aryl) cyclic urea derivatives as anti-coagulants” (Berlex Laboratories, Inc., priority 1995, dated 1997).
Residues, ends and D or L forms follow the SMILES beside them.

What was measured:
[1] = target: T1, Human tissue plasminogen activator (tPA) (Two chains, Sigma) (Homo sapiens, UniProt P00750); assay: In vitro chromogenic assay for tissue plasminogen activator (S2288 cleavage); format: biochemical; conditions: assay buffer pH 7.5, ambient temperature; read-out: Km (substrate concentration equal to Km)
T1 construct: (tPA) (Two chains, Sigma); purchased Sigma
Procedure: (§1) The activities were determined as an initial rate of cleavage of the peptide p-nitroanilide by the enzyme. The cleavage product, p-nitroaniline, absorbs at 405 nm with a molar extinction coefficient of 9920M^-1 cm^-1.
(§2) 50 mM TrisHCl, 150 mM NaCl, 2.5 mM CaCl2, and 0.1% polyethylene glycol 6000, pH 7.5.
3. Human tissue plasminogen activator (tPA) (Two chains, Sigma) stock solution: 1 mg/mL, stored at -80° C. (working solution (2×): 1361 ng/mL in assay buffer, prepare prior to use).
3. S2288 (tPA assay) stock solution: 10 mM in dH2 O, stored at 4° C. (working solution (4×): 1484 μM in assay buffer). (All substrate working solutions were prepared on assay […].)
Assays were performed in 96-well microtiter plates in a total volume of 200 μl. […] Concentrations of the standard inhibitor compound in the assay were from 5 μM to 0.021 μM in 1 to 3 dilution. Concentration of the test compounds in the assay typically were from 10 μM to 0.041 μM in 1 to 3 dilution. For potent test compounds, the concentrations used in the factor Xa assay were further diluted 100 fold (100 nM to 0.41 nM) or 1000 fold (10 nM to 0.041 nM). All substrate concentrations used are equal to their Km values under the present assay conditions. Assays were performed at ambient temperature. […]
(§3) The enzyme kinetics were measured at 405 nm, at 10 seconds interval, for five minutes in a THERMOmax plate reader at ambient temperature.

Human thrombin = target: T2, Human thrombin (Homo sapiens, UniProt P00734); assay: In vitro chromogenic assay for thrombin (S2302 cleavage); format: biochemical; conditions: assay buffer pH 7.5, ambient temperature; read-out: Km (substrate concentration equal to Km)
T2 construct: Human thrombin stock solution; purchased Enzyme Research Lab
Procedure: as §1, §2
2. Human thrombin stock solution: Stored at -80° C. (working solution (2×): 1200 ng/mL or 40 nM in assay buffer, prepare prior to use).
1. S2222 (FXa assay) stock solution: 6 mM in dH2 O, store at 4° C. (working solution (4×): 656 μM in assay buffer). p1 2. S2302 (Thrombin assay) stock solution: 10 mM in dH2 O, stored at 4° C. (working solution (4×): 1200 μM in assay buffer).
Assays were performed in 96-well microtiter plates in a total volume of 200 μl. […] Concentrations of the standard inhibitor compound in the assay were from 5 μM to 0.021 μM in 1 to 3 dilution. Concentration of the test compounds in the assay typically were from 10 μM to 0.041 μM in 1 to 3 dilution. […]
as §3
Enzyme rates were calculated as mOD/min based on the first two minutes readings. The IC50 values were determined by fitting the data to the log-logit equation (linear) or the Morrison equation (non-linear) with an EXCEL spread-sheet. […]

T1 sequence (P00750 311-562 limits assumed): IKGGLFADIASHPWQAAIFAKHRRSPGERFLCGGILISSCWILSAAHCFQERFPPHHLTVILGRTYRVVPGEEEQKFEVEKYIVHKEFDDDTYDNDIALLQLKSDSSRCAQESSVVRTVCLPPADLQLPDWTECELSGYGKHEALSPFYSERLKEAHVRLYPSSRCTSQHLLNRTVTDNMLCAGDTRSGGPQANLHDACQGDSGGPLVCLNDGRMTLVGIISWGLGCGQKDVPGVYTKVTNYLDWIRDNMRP
T1 sequence (P00750 36-310 partner limits assumed): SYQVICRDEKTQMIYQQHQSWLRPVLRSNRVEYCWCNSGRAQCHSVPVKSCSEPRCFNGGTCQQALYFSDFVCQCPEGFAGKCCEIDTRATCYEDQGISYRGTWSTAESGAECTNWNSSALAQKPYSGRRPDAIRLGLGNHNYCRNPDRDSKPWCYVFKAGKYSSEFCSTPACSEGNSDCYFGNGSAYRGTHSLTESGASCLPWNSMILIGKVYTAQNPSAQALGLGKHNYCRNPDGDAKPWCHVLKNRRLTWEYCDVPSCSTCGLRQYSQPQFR

In the case of `CC[C@@H](C)[C@@H](N)C(=O)N1CCC[C@H]1C(=O)N[C@@H](CCCN=C(N)N)C(=O)Nc1ccc([N+](=O)[O-])cc1` [Example S2288] (HELM PEPTIDE1{[dI].P.R.[O=[N+]([O-])c1ccc(N[*:1])cc1]}$$$$V2.0), the Km [1] is reported as 371 µM.

Work on `N=C(N)NCCC[C@H](NC(=O)[C@H](Cc1ccccc1)NC(=O)[C@H]1CCCN1)C(=O)Nc1ccc([N+](=O)[O-])cc1` [Example S2302] (HELM PEPTIDE1{[dP].F.R.[O=[N+]([O-])c1ccc(N[*:1])cc1]}$$$$V2.0) yielded a Km (Human thrombin) of 300 µM.
